This note sets out measurements from patent US20090004664A1, “HCV NS3 replicon shuttle vectors” (ROCHE PALO ALTO LLC, priority 2007, published 2009).

Holding throughout (type): cell-based, HCV
Test [1] deals with replicon containing patient-derived NS3 TN132-6 (NS3 V36M, GT1a clinical isolate TN132). The test is described as follows: Replicon phenotypic assay, replicon containing patient-derived NS3 TN132-6. To be noted: Hepatitis C virus, Huh-7. How it is done: (§1) Five micrograms of DNA plasmids were linearized by Sca I restriction enzyme (Roche). After overnight digestion at 37° C., the DNA was purified using Qiagen PCR purification kit. One microgram of linearized DNA was used for the in vitro transcription using T7 Mega script kit following manufacturer's protocol (Ambion). After 2 hours of incubation at 37° C., DNase treatment was performed for 30 minutes at 37° C. to remove the DNA template. In vitro transcribed RNA was then purified using NucAway Spin Column following manufacturer's protocol (Ambion).
(§2) Cured hepatoma cell line Huh7 were cultured at 37° C. in a humidified atmosphere with 5% CO2 in Dulbecco's Modified Eagle Medium (DMEM) supplemented with Glutamax™ and 100 mg/ml sodium pyruvate (Cat# 10569-010). The medium was further supplemented with 10% (v/v) FBS (Cat# 16000-036) and 1% (v/v) penicillin/streptomycin (Cat# 15140-122). All reagents were from Invitrogen/Gibco.
(§3) Four million cured Huh7 cells were transfected with 5 μg of in vitro transcribed RNA using electroporation. […] Inhibitors were added 24 hours post-transfection in 3 fold dilutions at a final DMSO concentration of 1% and firefly luciferase reporter signal was read 72 hours after addition of inhibitors using the Luciferase Assay system (Promega, cat #E1501). […]
(In antiviral work, replicon cells carry a viral genome segment that copies itself.)

For test [2], the system named is replicon containing patient-derived NS3 TN132-1 (NS3 V36M, GT1a clinical isolate TN132). The test is described as follows: Replicon phenotypic assay, replicon containing patient-derived NS3 TN132-1. To be noted: Hepatitis C virus, Huh-7. How it is done:
as §1, §2, §3

Test [3] concerns replicon containing patient-derived NS3 2209-23. Briefly: Replicon phenotypic assay, replicon containing patient-derived NS3 2209-23. To be noted: Hepatitis C virus, Huh-7; 2209-23 replicon in cured Huh7 cells; inhibitor added 24 h post-transfection, luciferase read 72 h later. As to the method: as §1, §2, §3
Test [4] concerns replicon containing patient-derived NS3 TN132-2 (NS3 V36M, GT1a clinical isolate TN132). Briefly: Replicon phenotypic assay, replicon containing patient-derived NS3 TN132-2. To be noted: Hepatitis C virus, Huh-7. How it is done: as §1, §2, §3
Test [5] concerns Genotype-1a template NS3 shuttle vector (H77NS3) replicon. The test is described as follows: Replicon phenotypic assay (transient replicon, firefly luciferase), Genotype-1a template NS3 shuttle vector. Conditions: Hepatitis C virus, Huh-7; H77 NS3 replicon in cured Huh7 cells; inhibitor added 24 h post-transfection, luciferase read 72 h later. How it is done: as §1, §2, §3
Test [6] concerns replicon containing patient-derived NS3 of sample TN-132 (V36M mutation in the NS3 gene). Briefly: Replicon phenotypic assay, patient sample TN-132. Conditions: sample TN-132 carrying V36M mutation in the NS3 gene. As to the method: as §1, §2, §3

pIC50: −log10 of the molar value.

For `CCC[C@H](NC(=O)[C@@H]1[C@H]2CCC[C@H]2CN1C(=O)[C@@H](NC(=O)[C@@H](NC(=O)c1cnccn1)C1CCCCC1)C(C)(C)C)C(=O)C(=O)NC1CC1` [VX-950], the pIC50 (as a rule, −log10 of the IC50, conventionally taken in molar units) in test [1] is 5.83; in test [2] it was 5.63; in test [3], 6.20; in test [4], 5.58; in test [5], 6.36. Also, in test [6], the “sensitivity of sample TN-132 to the inhibitor” value is on record as “reduced sensitivity”.
